From ChEMBL document CHEMBL3885861, “Open TG-GATES”

Species: Rattus norvegicus
Assay: Open TG-GATES - Regimen: Daily Repeat
Type: toxicity, organism-based, Sprague-Dawley
Design: regimen Daily Repeat, gender Male, age 6 weeks
Conditions: in vivo, po, route gavage; for Eos / Fbg / Hb / Ht / Lym / MCH / MCV / Mono / Neu / PT / Plat / RBC / Ret / WBC / APTT / Bas: tissue Blood; for KIDNEY_L / KIDNEY_R / KIDNEY_TOTAL: tissue Kidney; for LIVER: tissue Liver; for ALP / ALT / AST / BUN / CRE / Ca / Cl / DBIL / GLC / IP / K / LDH / Na / PL / RALB / TBIL / TC / TP / gamma-GTP: tissue Plasma
[1] = 100 mg/kg, 72 h, dose level Middle, time 3 day
[2] = 100 mg/kg, […], dose level Middle, time 7 day
[3] = 100 mg/kg, […], dose level Middle, time 14 day
[4] = 100 mg/kg, […], dose level Middle, time 28 day
[5] = 300 mg/kg, 72 h, dose level High, time 3 day

NC(=O)N1c2ccccc2C=Cc2ccccc21 [CARBAMAZEPINE]
Eos [1]: 1.2% | Fbg [1]: 224.6 mg/dL | Hb [1]: 13.6 g/dL | Ht [1]: 39.9% | Lym [1]: 79% | MCH [1]: 21.3 pg | MCV [1]: 62.4 fL | Mono [1]: 2.4% | Neu [1]: 16.4% | PT [1]: 11.9 s | Plat [1]: 125.3 x10_4/uL | RBC [1]: 638.8 x10_4/ul | Ret [1]: 4.9% | WBC [1]: 79.2 x10_2/uL | KIDNEY_L [1]: 1 g | KIDNEY_R [1]: 1 g | KIDNEY_TOTAL [1]: 2.1 g | LIVER [1]: 12.1 g | ALP [1]: 795 IU/L | ALT [1]: 39.6 IU/L | AST [1]: 67.2 IU/L | BUN [1]: 15.8 mg/dL | CRE [1]: 0.4 mg/dL | Ca [1]: 11.1 mg/dL | Cl [1]: 103.4 meq/L | DBIL [1]: 0.084 mg/dL | GLC [1]: 217.2 mg/dL | IP [1]: 7.9 mg/dL | K [1]: 3.5 meq/L | LDH [1]: 212.4 IU/L | Na [1]: 141.4 meq/L | PL [1]: 154.4 mg/dL | RALB [1]: 3.4 g/dL | TBIL [1]: 0.1 mg/dL | TC [1]: 80.6 mg/dL | TP [1]: 5.8 g/dL | gamma-GTP [1]: 0.8 IU/L | TERMINAL_BW [2]: 271.4 g | TERMINAL_BW [3]: 314.7 g | TERMINAL_BW [4]: 397.6 g | APTT [2]: 20.2 s | Bas [2]: 0% | Eos [2]: 1% | Fbg [2]: 229.8 mg/dL | Hb [2]: 13.3 g/dL | Ht [2]: 39.4% | Lym [2]: 85% | MCH [2]: 21.1 pg | MCV [2]: 62.5 fL | Mono [2]: 2.6% | Neu [2]: 10.8% | PT [2]: 11.6 s | Plat [2]: 134.8 x10_4/uL | RBC [2]: 630.8 x10_4/ul | Ret [2]: 5.1% | WBC [2]: 131.2 x10_2/uL | APTT [3]: 21.8 s | Bas [3]: 0% | Eos [3]: 0.6% | Fbg [3]: 213.4 mg/dL | Hb [3]: 14.4 g/dL | Ht [3]: 41.3% | Lym [3]: 80% | MCH [3]: 20.6 pg | MCV [3]: 59.1 fL | Mono [3]: 2% | Neu [3]: 16% | PT [3]: 12.4 s | Plat [3]: 122.9 x10_4/uL | RBC [3]: 698.6 x10_4/ul | Ret [3]: 3.8% | WBC [3]: 129.1 x10_2/uL | APTT [4]: 21.1 s | Bas [4]: 0% | Eos [4]: 1.2% | Fbg [4]: 222 mg/dL | Hb [4]: 15.7 g/dL | Ht [4]: 44.3% | Lym [4]: 80% | MCH [4]: 19.5 pg | MCV [4]: 55.1 fL | Mono [4]: 2.4% | Neu [4]: 15.4% | PT [4]: 12.8 s | Plat [4]: 105.9 x10_4/uL | RBC [4]: 804 x10_4/ul | Ret [4]: 2% | WBC [4]: 98.2 x10_2/uL | KIDNEY_L [2]: 1.2 g | KIDNEY_R [2]: 1.1 g | KIDNEY_TOTAL [2]: 2.3 g | KIDNEY_L [3]: 1.3 g | KIDNEY_R [3]: 1.3 g | KIDNEY_TOTAL [3]: 2.6 g | KIDNEY_L [4]: 1.6 g | KIDNEY_R [4]: 1.5 g | KIDNEY_TOTAL [4]: 3.1 g | LIVER [2]: 14.5 g | LIVER [3]: 14.8 g | LIVER [4]: 16.8 g | ALP [2]: 857.6 IU/L | ALT [2]: 34 IU/L | AST [2]: 63 IU/L | BUN [2]: 17 mg/dL | CRE [2]: 0.5 mg/dL | Ca [2]: 10.7 mg/dL | Cl [2]: 102.2 meq/L | DBIL [2]: 0.1 mg/dL | GLC [2]: 207.6 mg/dL | IP [2]: 7.3 mg/dL | K [2]: 3.6 meq/L | LDH [2]: 233.2 IU/L | Na [2]: 141.2 meq/L | PL [2]: 175 mg/dL | RALB [2]: 3.5 g/dL | TBIL [2]: 0.1 mg/dL | TC [2]: 93.4 mg/dL | TP [2]: 5.9 g/dL | gamma-GTP [2]: 1 IU/L | ALP [3]: 733.4 IU/L | ALT [3]: 37.6 IU/L | AST [3]: 64.6 IU/L | BUN [3]: 16.5 mg/dL | CRE [3]: 0.5 mg/dL | Ca [3]: 10.6 mg/dL | Cl [3]: 101.6 meq/L | DBIL [3]: 0.1 mg/dL | GLC [3]: 205.4 mg/dL | IP [3]: 7.5 mg/dL | K [3]: 3.7 meq/L | LDH [3]: 203.2 IU/L | Na [3]: 141.4 meq/L | PL [3]: 161.2 mg/dL | RALB [3]: 3.4 g/dL | TBIL [3]: 0.2 mg/dL | TC [3]: 84.4 mg/dL | TP [3]: 5.9 g/dL | gamma-GTP [3]: 1.2 IU/L | ALP [4]: 641.4 IU/L | ALT [4]: 41.2 IU/L | AST [4]: 62.2 IU/L | BUN [4]: 17.4 mg/dL | CRE [4]: 0.4 mg/dL | Ca [4]: 10.2 mg/dL | Cl [4]: 101.8 meq/L | DBIL [4]: 0.092 mg/dL | GLC [4]: 213.8 mg/dL | IP [4]: 7 mg/dL | K [4]: 3.6 meq/L | LDH [4]: 138.6 IU/L | Na [4]: 141.4 meq/L | PL [4]: 158.2 mg/dL | RALB [4]: 3.5 g/dL | TBIL [4]: 0.1 mg/dL | TP [4]: 6.2 g/dL | gamma-GTP [4]: 0.6 IU/L | TERMINAL_BW [5]: 224.7 g | APTT [5]: 20.4 s
